According to patent US20100197738A1, “FLY CONTROL METHOD” (priority 2007, published 2010):

System: Adult L. serricata (blowflies)
Experiment: Test A: adult blowflies on blood agar containing test compound, scored by number of dead flies
Assay type: in vivo
Conditions: 4 flies in test
Experimental: Adult L. serricata (blowflies): Adult flies are placed on beds of blood agar (in individual test wells; 4 flies per well) in which test compound, (3-bromo-N-[4-chloro-2-methyl-6-[(methylamino)carbonyl]phenyl]-1-(3-chloro-2-pyridinyl)-1H-pyrazole-5-carboxamide), was dissolved/suspended prior to hardening of agar. Flies can take up test compound by both ingestion and contact. Assays are scored by number of dead flies at 2 hours, 4 hours, and 24 hours.

SMILES | Number dead flies at 2 hours (Rate 1 ppm in blood agar) | Number dead flies at 4 hours (Rate 1 ppm in blood agar) | Number dead flies at 24 hours (Rate 1 ppm in blood agar) | Number dead flies at 2 hours (Rate 10 ppm in blood agar) | Number dead flies at 4 hours (Rate 10 ppm in blood agar) | Number dead flies at 24 hours (Rate 10 ppm in blood agar) | Number dead flies at 2 hours (Rate 25 ppm in blood agar) | Number dead flies at 4 hours (Rate 25 ppm in blood agar) | Number dead flies at 24 hours (Rate 25 ppm in blood agar) | Number dead flies at 2 hours (Rate 50 ppm in blood agar) | Number dead flies at 4 hours (Rate 50 ppm in blood agar) | Number dead flies at 24 hours (Rate 50 ppm in blood agar) | Number dead flies at 2 hours (Rate 100 ppm in blood agar) | Number dead flies at 4 hours (Rate 100 ppm in blood agar) | Number dead flies at 24 hours (Rate 100 ppm in blood agar)
CNC(=O)c1cc(Cl)cc(C)c1NC(=O)c1cc(Br)nn1-c1ncccc1Cl [Test Compound, 3-bromo-N-[4-chloro-2-methyl-6-[(methylamino)carbonyl]phenyl]-1-(3-chloro-2-pyridinyl)-1H-pyrazole-5-carboxamide] | 0 | 0 | 0 | 0 | 0 | 1 | 0 | 0 | 2 | 0 | 0 | 2 | 0 | 0 | 3
CCOP(=S)(OCC)Oc1nc(Cl)c(Cl)cc1Cl [Chloropyriphos, O,O-diethyl-O-3,5,6-trichloro-2-pyridyl-phosphorothioate] | 0 | 1 | 4 | 1 | 4 | 4 | 3 | 4 | 4 | 4 | 4 | 4 | 4 | 4 | 4
